Measurements: patent US20250249056A1, “CANCER THERAPIES COMPRISING A NUCLEAR EXPORT INHIBITOR AND AN ONCOLYTIC VIRUS” (priority 2022, published 2025)
Where two headings read alike, the source gives them in different places.

Tested on: Colo205 cells
Assay type: cell-based, human
[1] = selinexor-treated nucleus vs MYXV + selinexor-treated nucleus

## O=C(/C=C\n1cnc(-c2cc(C(F)(F)F)cc(C(F)(F)F)c2)n1)NNc1cnccn1 [selinexor]
Protein NDE1 (Q9NXR1)
  Differential protein expression, selinexor-treated nucleus vs control nucleus: 0.484
Protein NDEL1 (Q9GZM8)
  Differential protein expression, selinexor-treated nucleus vs control nucleus: 0.481
Protein NDUFA5 (Q16718)
  Differential protein expression, selinexor-treated nucleus vs control nucleus: 0.488
Protein NDUFA11 (Q86Y39)
  Differential protein expression, selinexor-treated nucleus vs control nucleus: 0.492
Protein NDUFS3 (075489)
  Differential protein expression, selinexor-treated nucleus vs control nucleus: 0.478
Protein NDUFS8 (O00217)
  Differential protein expression, selinexor-treated nucleus vs control nucleus: 0.487
Protein NFAT5 (O94916)
  Differential protein expression, selinexor-treated nucleus vs control nucleus: 2.586
Protein NUDT3 (O95989)
  Differential protein expression, selinexor-treated nucleus vs control nucleus: 100
Protein NXN (Q6DKJ4)
  Differential protein expression, selinexor-treated nucleus vs control nucleus: 100
Protein OAS1 (P00973)
  Differential protein expression, selinexor-treated nucleus vs control nucleus: 2.45
Protein OCIAD2 (Q56VL3)
  Differential protein expression, selinexor-treated nucleus vs control nucleus: 0.5
Protein PAN2 (Q504Q3)
  Differential protein expression, selinexor-treated nucleus vs control nucleus: 2.108
Protein PAN3 (Q58A45)
  Differential protein expression, selinexor-treated nucleus vs control nucleus: 2.073
Protein PANK1 (Q8TE04)
  Differential protein expression, selinexor-treated nucleus vs control nucleus: 100
Protein PATL1 (Q86TB9)
  Differential protein expression, selinexor-treated nucleus vs control nucleus: 0.487
Protein PAXX (Q9BUH6)
  Differential protein expression, selinexor-treated nucleus vs control nucleus: 2.321
Protein PHF19 (Q5T6S3)
  Differential protein expression, selinexor-treated nucleus vs control nucleus: 0.477
Protein PNO1 (Q9NRX1)
  Differential protein expression, selinexor-treated nucleus vs control nucleus: 2.639
Protein POLR2B (P30876)
  Differential protein expression, selinexor-treated nucleus vs control nucleus: 0.486
Protein PRDX4 (Q13162)
  Differential protein expression, selinexor-treated nucleus vs control nucleus: 2.477
Protein RBL2 (Q08999)
  Differential protein expression, selinexor-treated nucleus vs control nucleus: 2.063
Protein ROCK1 (Q13464)
  Differential protein expression, selinexor-treated nucleus vs control nucleus: 2.201
Protein RPL10 (P27635)
  Differential protein expression, selinexor-treated nucleus vs control nucleus: 0.483
Protein RPL10L (Q96L21)
  Differential protein expression, selinexor-treated nucleus vs control nucleus: 0.473
Protein RPLP1 (P05386)
  Differential protein expression, selinexor-treated nucleus vs control nucleus: 0.472
Protein RRM1 (P23921)
  Differential protein expression, selinexor-treated nucleus vs control nucleus: 0.488
Protein RTN4 (Q9NQC3)
  Differential protein expression, selinexor-treated nucleus vs control nucleus: 0.491
Protein S100A8 (P05109)
  Differential protein expression, selinexor-treated nucleus vs control nucleus: 2.396
Protein SDAD1 (Q9NVU7)
  Differential protein expression, selinexor-treated nucleus vs control nucleus: 2.021
Protein SDCBP2 (Q9H190)
  Differential protein expression, selinexor-treated nucleus vs control nucleus: 2.735
Protein SFXN2 (Q96NB2)
  Differential protein expression, selinexor-treated nucleus vs control nucleus: 0.478
Protein SFXN5 (Q8TD22)
  Differential protein expression, selinexor-treated nucleus vs control nucleus: 0.48
Protein SLC12A7 (Q9Y666)
  Differential protein expression, selinexor-treated nucleus vs control nucleus: 0.496
Protein SLC25A11 (Q02978)
  Differential protein expression, selinexor-treated nucleus vs control nucleus: 0.496
Protein SLC25A12 (O75746)
  Differential protein expression, selinexor-treated nucleus vs control nucleus: 0.483
Protein SLC25A17 (O43808)
  Differential protein expression, selinexor-treated nucleus vs control nucleus: 0.484
Protein SLC25A35 (Q3KQZ1)
  Differential protein expression, selinexor-treated nucleus vs control nucleus: 0.474
Protein SPG7 (Q9UQ90)
  Differential protein expression, selinexor-treated nucleus vs control nucleus: 0.481
Protein TDRKH (Q9Y2W6)
  Differential protein expression, selinexor-treated nucleus vs control nucleus: 0.492
Protein TEAD2 (Q15562)
  Differential protein expression, selinexor-treated nucleus vs control nucleus: 0.487
Protein TEAD4 (Q15561)
  Differential protein expression, selinexor-treated nucleus vs control nucleus: 0.494
Protein TMA7 (Q9Y2S6)
  Differential protein expression, selinexor-treated nucleus vs control nucleus: 2.251
Protein TOMM20 (Q15388)
  Differential protein expression, selinexor-treated nucleus vs control nucleus: 0.497
Protein TPPP3 (Q9BW30)
  Differential protein expression, selinexor-treated nucleus vs control nucleus: 2.549
Protein UQCR10 (Q9UDW1)
  Differential protein expression, selinexor-treated nucleus vs control nucleus: 0.477
Protein VCPIP1 (Q96JH7)
  Differential protein expression, selinexor-treated nucleus vs control nucleus: 2.057
Protein YBX1 (P67809)
  Differential protein expression, selinexor-treated nucleus vs control nucleus: 0.477
Protein m090L (D2WN26)
  Differential protein expression, selinexor-treated nucleus vs control nucleus: 100
Protein m093L (Q9Q8K7)
  Differential protein expression, selinexor-treated nucleus vs control nucleus: 0.498
[1]
  Differential protein expression B2CWA6 m003.1R: 0.145
  Differential protein expression B2CWA8: 0.122
  Differential protein expression B2CWB0: 0.01
  Differential protein expression B2CWB2: 0.055
  Differential protein expression B2CWB4 m008.1L: 0.045
  Differential protein expression B2CWB5: 0.036
  Differential protein expression B2CWC0: 0.092
  Differential protein expression B2CWC1 m015L: 0.04
  Differential protein expression B2CWC6 m020L: 0.191
  Differential protein expression B2CWC8: 0.058
  Differential protein expression B2CWD4 m027L: 0.045
  Differential protein expression B2CWD6 m029L: 0.023
  Differential protein expression B2CWD8: 0.011
  Differential protein expression B2CWE0 m033R: 0.01
  Differential protein expression B2CWE1: 0.047
  Differential protein expression B2CWE3: 0.064
  Differential protein expression B2CWF3 m046L: 0.111
  Differential protein expression B2CWF4 m047R: 0.039
  Differential protein expression B2CWF6: 0.051
